ChEMBL document CHEMBL1125250 (J Med Chem, 1991)

Experiments:
Aromatase = target: T1, Aromatase (Rattus norvegicus, UniProt P22443)
T1 sequence (P22443 whole entry): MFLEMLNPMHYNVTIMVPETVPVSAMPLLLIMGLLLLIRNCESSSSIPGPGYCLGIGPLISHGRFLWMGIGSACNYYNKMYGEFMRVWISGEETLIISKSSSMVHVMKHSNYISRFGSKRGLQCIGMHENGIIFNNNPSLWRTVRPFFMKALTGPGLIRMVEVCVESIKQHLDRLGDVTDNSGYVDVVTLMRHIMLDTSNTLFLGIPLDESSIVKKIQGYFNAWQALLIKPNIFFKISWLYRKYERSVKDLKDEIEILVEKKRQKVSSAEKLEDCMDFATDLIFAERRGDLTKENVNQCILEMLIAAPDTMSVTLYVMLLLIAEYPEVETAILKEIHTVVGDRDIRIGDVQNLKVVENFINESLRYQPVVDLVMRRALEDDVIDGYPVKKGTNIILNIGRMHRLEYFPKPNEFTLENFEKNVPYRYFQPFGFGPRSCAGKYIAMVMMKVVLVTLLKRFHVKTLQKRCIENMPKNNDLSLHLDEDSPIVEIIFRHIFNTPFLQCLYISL

[1] = target: T2, Cholesterol side-chain cleavage enzyme, mitochondrial (Homo sapiens, UniProt P05108); format: functional, Cricetulus griseus
T2 sequence (P05108 whole entry): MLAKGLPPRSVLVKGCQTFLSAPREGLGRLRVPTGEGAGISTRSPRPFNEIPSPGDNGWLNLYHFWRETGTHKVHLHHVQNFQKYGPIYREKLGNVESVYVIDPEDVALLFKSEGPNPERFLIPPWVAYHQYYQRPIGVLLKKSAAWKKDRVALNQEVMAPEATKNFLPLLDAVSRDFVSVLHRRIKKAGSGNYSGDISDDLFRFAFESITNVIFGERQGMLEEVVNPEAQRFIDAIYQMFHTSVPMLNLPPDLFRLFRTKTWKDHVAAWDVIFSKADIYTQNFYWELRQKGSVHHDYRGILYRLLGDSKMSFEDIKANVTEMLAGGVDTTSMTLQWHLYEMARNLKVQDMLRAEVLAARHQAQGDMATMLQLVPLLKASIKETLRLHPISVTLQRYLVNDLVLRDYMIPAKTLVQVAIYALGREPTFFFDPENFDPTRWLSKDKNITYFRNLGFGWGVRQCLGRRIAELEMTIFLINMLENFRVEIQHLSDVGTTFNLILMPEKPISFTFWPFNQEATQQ

OCc1ccc(C2CCCc3cncn32)cc1 (centres undefined)
EDmin (Aromatase): 0.5 µM/kg

CCC1(c2ccc(N)cc2)CCC(=O)NC1=O (centres undefined) [AMINOGLUTETHIMIDE]
IC50 [1]: 80 µM

CCOC(=O)c1ccc(C2CCCc3cncn32)cc1.Cl (centres undefined)
EDmin (Aromatase): > 10 µM/kg

Brc1ccc(C2CCCc3cncn32)cc1.Cl (centres undefined)
EDmin (Aromatase): 0.5 µM/kg
